Data on 9 molecules can be found in patent US8546113B2, “Hydrogen peroxide-forming NADH oxidase and DNA encoding the same” (Keio University, priority 2008, dated 2013).

For data set [1], the system named is NADH oxidase isolated from Brevibacterium sp. As to conditions: inhibitor 1 mM, 3 minutes at room temperature; NADH 10 μM; (NH4)2SO4 500 mM; Tris-HCl pH 8.8; not stated whether % inhibition or % relative activity. How it is done:
The enzyme solution was added to 100 mM Tris-HCl (pH 8.8). Further, an inhibitor was added thereto to a final concentration of 1 mM, followed by incubation at room temperature for 3 minutes. Then, NADH and (NH4)2SO4 were added thereto so as to result in concentrations of 10 μM and 500 mM, respectively, followed by determination of the absorbance at 340 nm. Accordingly, the reaction rate was determined.

Data set [2] shares this test system. Put plainly: Effects of salts on enzyme activity. It is filed as biochemical, Brevibacterium sp. KU1309. How it is done: Reaction was carried out with the addition of different salts, followed by determination of absorbance at 340 nm. Then, the reaction rate was determined. […] Then, the effects of ammonium salt concentration upon enzyme activity were examined in the manner described below. The reaction was carried out in the presence of ammonium sulfate at a concentration of 0 M to 4.35 M. Thereafter, the relative value of the reaction rate was calculated.

Data set [3] has the same test system. Put plainly: Kinetic analysis of NADH oxidation (Lineweaver-Burk plot, absorbance at 340 nm). As to conditions: for Km: NOX 0.28 ug/ml. It is filed as biochemical, Brevibacterium sp. KU1309. How it is done:
(§1) Enzyme activity was evaluated by measuring the absorbance at 340 nm, which decreases as a result of oxidization of NADH to NAD^+, with the use of an absorptiometer. A reaction was induced by adding an enzyme solution to a mixture of 0.1 mM NADH, 100 mM Tris-HCL (pH 8.8), and 500 mM ammonium sulfate. Herein, “1 unit” is defined as the amount of an enzyme that allows oxidation of 1μ mole of NADH per minute.
For kinetic analysis, the reaction rate was determined at an NADH concentration of 10 μM to 100 μM. A Lineweaver-Burk plot was created based on the obtained values. The reaction was carried out as described below. A reaction solution (NOX: 0.28 ug/ml; NADH: 10 μM to 100 μM; (NH4)2SO4: 500 mM; and Tris-HCl: 100 mM (pH 8.8)) was introduced into an absorptiometer cell, followed by determination of the absorbance at 340 nm. Accordingly, the reaction rate was determined.

Data set [4] has the same test system. Nature of the data set: H2O2 formation confirmation and quantification (o-dianisidine/peroxidase, Abs460). As to conditions: NADH 75, 100 and 150 μM. It is filed as biochemical, Brevibacterium sp. KU1309. Here is the method: NOX is classified into the H2O by-product type and the H2O2 by-product type. With the use of the assay method shown in FIG. 8A, H2O2 formation confirmation and H2O2 quantification were carried out. First, the reaction was carried out with the use of hydrogen peroxide, o-dianisidine, and peroxidase at known concentrations. The standard curve of [H2O2] vs Abs460 was created. The symbol “♦” denotes each obtained plotted point on the curve in FIG. 8B. […] The reaction was completed after the elapse of a sufficient reaction time. The completion of the reaction was confirmed with the use of an absorptiometer. The obtained reaction solution (50 μl) was added to a 100 mM phosphate buffer (pH 7.0) containing o-dianisidine and peroxidase, followed by absorbance determination. The symbol “□” denotes each obtained plotted point on the curve in FIG. 8B. […] It is understood that the values were identical to the relevant [H2O2] concentrations.

Data set [5] shares this test system. Put plainly: Substrates and activity levels in the presence of cofactors. The data set is classed as biochemical, Brevibacterium sp. KU1309. How it is done: as §1
Where [6] appears, read: NADH 10 μM to 100 μM, (NH4)2SO4 500 mM, Tris-HCl 100 mM (pH 8.8).
Setting [7] is: as substrate, no cofactor added, NADH without cofactor = 100.
The mark [8] stands for this setting: substrate NADH, cofactor added at 1 mM.

On to `[Zn+2]` [Zn^2+], for which, in data set [1], the “activity inhibited (FIG. 6 relative activity values)” value worked out at 39%.

`N.N.O=S(=O)(O)O` [ammonium salt, ammonium sulfate]: in data set [2], the “effect of addition of salt on enzyme activity” value is on record as “increases”. In data set [2] (ammonium sulfate 0 M to 4.35 M), the “ammonium salt concentration ([NH4+]) at maximum activity” value is recorded as 3.0 M.

With “reduced nicotinamide adenine dinucleotide [NADH]”, the Kcat in data set [3] (Calculated with a molecular weight of 101.68 kDa) was 15.01 s⁻¹. Besides, in data set [3] (setting [6]), the Vmax was 8.86 Unit/mq and the Michaelis constant (Km) amounted to 22 µM. Besides, the “hydrogen peroxide formed on oxidization of 1 mol of NADH” value in data set [4] turned out to be 1 mol. In data set [5] (setting [7]), the “Specific activity (%)” value is 100%.

For `Cc1cc2nc3c(=O)[nH]c(=O)nc-3n(C[C@H](O)[C@H](O)[C@H](O)COP(=O)(O)O)c2cc1C` [FMN], the “activation caused by FAD or FMN” value in data set [5] is on record as “not observed”. The “Specific activity (%)” value in data set [5] (setting [8]) is 104%.

With `[Ag+]` [Ag^+], the “activity inhibited (FIG. 6 relative activity values)” value in data set [1] worked out at 37%.

With `Cc1cc2nc3c(=O)[nH]c(=O)nc-3n(C[C@H](O)[C@H](O)[C@H](O)COP(=O)(O)OP(=O)(O)OC[C@H]3O[C@@H](n4cnc5c(N)ncnc54)[C@H](O)[C@@H]3O)c2cc1C` [FAD], the “activation caused by FAD or FMN” value in data set [5] is listed as “not observed”. Further, in data set [5] (setting [8]), the “Specific activity (%)” value is reported as 101%.

Take `[Cu+2]` [Cu^2+]: the “activity inhibited (FIG. 6 relative activity values)” value in data set [1] stood at 42%.

Consider `NC(=O)C1=CN([C@@H]2O[C@H](COP(=O)(O)OP(=O)(O)OC[C@H]3O[C@@H](n4cnc5c(N)ncnc54)[C@H](OP(=O)(O)O)[C@@H]3O)[C@@H](O)[C@H]2O)C=CC1` [NADPH], for which the “degree of NADPH-oxidizing activity” value in data set [5] was “low”. In data set [5] (setting [7]), the “Specific activity (%)” value came to 2%.

B1: enzyme of the present invention: hydrogen peroxide-forming NADH oxidase from Brevibacterium sp. KU1309, homodimer, amino acid sequence of SEQ ID NO: 18 (protein, listed as Brevibacterium sp.)
chain: VSDELTYDLVVLGGGTGGYAAALRAAELDMKVALIERDKVGGTCLHRGCVPTKALLHAAEVAETAKNSETFGIEAELQGIDIAKVLEYKDGVITRNYKGLQGLVKARGIDTYFGTGKLVGKDTVEVTGEDGNHTVKGTNVLLSTGSTSKTIGLEVTDRVITSTEALQLDKVPSSAIVLGGGVIGVEFASVWNSFGAEVTIVEGLKHLVANEDETISKNLERAFKKRKIKFKLGVMFKGVEETADGVKVTLEDGSTLEAEYLLVAVGRGPVTEGFGFEEQGIPMDRGFVLASERLHTGVGNIYACGDIVPGLQLAHRAFGQGIFIAEEIAGLNPAPVVESGIPRVTYCEPEIFSVGLSSAQAEEKYGKDQVESLEYNLGGNGKSVILNTTGLIKVIREKDGPVVGVHGIGARLSEQAGEAQLIVNWEAFPEEVAQLIHAHPTQNEALGEAHLALAGKPLHFHS
modifications: homodimer
Take B1: the Km in data set [3] (setting [6]) was found to be 22 µM. Moreover, the “hydrogen peroxide formed on oxidization of 1 mol of NADH” value in data set [4] worked out at 1 mol.

By Km is commonly meant the substrate concentration at which the rate is half of its maximum.
